From patent US20180099931A1 (AbbVie S.à.r.l., priority 2016, published 2018) come the findings set out here.

Read-outs that look alike come from different tables or passages of the source. Where only a bound is given, the exact number is not on record here.

For this assay, the target named is T1, F508delCFTR (Homo sapiens, UniProt P13569, DEL508-508).
T1 construct: expressed in transfected cells; host or cells: CFBE41o- human lung-derived epithelial cells (CFBE4lo-F508delCFTR-HRP), doxycycline-inducible
T1 sequence (P13569 with tags, fused parts or gaps DEL508-508): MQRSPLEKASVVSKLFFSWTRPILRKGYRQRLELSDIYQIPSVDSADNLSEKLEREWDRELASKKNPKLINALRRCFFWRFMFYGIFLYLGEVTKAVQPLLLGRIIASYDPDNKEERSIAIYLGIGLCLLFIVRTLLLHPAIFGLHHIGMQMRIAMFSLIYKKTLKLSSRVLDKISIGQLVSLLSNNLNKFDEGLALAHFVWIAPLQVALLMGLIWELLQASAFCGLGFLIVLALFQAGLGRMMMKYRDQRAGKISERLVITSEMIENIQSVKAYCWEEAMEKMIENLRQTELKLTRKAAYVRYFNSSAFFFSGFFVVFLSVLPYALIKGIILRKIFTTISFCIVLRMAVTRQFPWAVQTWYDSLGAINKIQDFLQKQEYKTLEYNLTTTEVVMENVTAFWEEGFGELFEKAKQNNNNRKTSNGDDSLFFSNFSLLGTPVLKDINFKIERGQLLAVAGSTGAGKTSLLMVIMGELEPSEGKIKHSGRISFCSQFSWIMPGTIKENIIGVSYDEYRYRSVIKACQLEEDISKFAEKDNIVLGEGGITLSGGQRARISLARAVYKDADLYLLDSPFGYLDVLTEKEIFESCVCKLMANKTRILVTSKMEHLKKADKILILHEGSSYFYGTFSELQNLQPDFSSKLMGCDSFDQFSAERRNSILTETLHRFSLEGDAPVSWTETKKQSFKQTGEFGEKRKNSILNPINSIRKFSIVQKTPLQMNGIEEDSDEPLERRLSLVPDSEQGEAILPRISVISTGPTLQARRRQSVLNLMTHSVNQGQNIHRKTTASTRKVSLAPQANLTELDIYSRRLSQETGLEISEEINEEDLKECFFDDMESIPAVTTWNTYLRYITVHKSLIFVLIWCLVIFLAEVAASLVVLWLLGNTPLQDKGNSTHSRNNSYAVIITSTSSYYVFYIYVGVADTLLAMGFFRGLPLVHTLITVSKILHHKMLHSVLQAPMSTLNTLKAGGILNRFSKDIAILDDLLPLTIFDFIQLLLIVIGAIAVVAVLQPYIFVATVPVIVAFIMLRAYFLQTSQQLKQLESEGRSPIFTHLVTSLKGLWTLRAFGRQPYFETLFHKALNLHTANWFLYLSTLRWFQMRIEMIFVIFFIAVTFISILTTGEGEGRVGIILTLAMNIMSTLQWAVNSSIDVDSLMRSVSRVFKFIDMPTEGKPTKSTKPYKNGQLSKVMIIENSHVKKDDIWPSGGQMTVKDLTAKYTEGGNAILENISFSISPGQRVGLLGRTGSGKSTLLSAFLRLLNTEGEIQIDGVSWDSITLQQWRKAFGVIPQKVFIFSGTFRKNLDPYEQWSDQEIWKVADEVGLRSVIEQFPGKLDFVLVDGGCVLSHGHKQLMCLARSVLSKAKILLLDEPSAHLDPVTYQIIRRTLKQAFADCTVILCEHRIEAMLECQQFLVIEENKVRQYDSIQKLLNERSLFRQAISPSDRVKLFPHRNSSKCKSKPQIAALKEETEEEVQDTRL
Nature of the assay: Cell Surface Expression-Horse Radish Peroxidase (CSE-HRP) Assay.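 For Maximum % activity (with co-corrector): co-corrector and positive control are both the same reference corrector at 2 µM.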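 For Maximum % activity (without co-corrector): percent of the 2 µM on-plate positive control corrector response above DMSO.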 It counts as cell-based. The note with it: for Maximum % activity (with co-corrector): with co-corrector (2 μM); for Maximum % activity (with co-corrector) / Emax: maximum at any tested concentration, normalized to on-plate positive control; for Emax: without co-corrector, read-out: Maximum % activity (without co-corrector).

[1] abbreviates: test compound without co-corrector, read-out: EC50 (without co-corrector).
[2] abbreviates: with co-corrector (2 μM of 3-[(2R,4R)-4-({[1-(2,2-difluoro-1,3-benzodioxol-5-yl)cyclopropyl]carbonyl}amino)-7-methoxy-3,4-dihydro-2H-chromen-2-yl]benzoic acid), read-out: EC50 (with co-corrector).

Turning to `COc1ccc(C(F)(F)F)cc1CN[C@H]1[C@H](C(C)(C)C)[C@@H](C(=O)O)N(C(=O)[C@@H]2CCC[C@@H](OC)C2)[C@H]1c1ccccc1` [Example I-59], the “Maximum % activity (with co-corrector)” value is given as “+++ (≥350)” and the Emax was above 200%. In addition, the half-maximal effective concentration (EC50) (in general, the concentration at which the effect is half-maximal) under setting [1] fell in the range of 1000 to 10000 nM. Moreover, the EC50 under setting [2] fell in the range of 1000 to 10000 nM.
In the case of `COc1ccc(C(F)(F)F)cc1CN[C@H]1[C@H](C(C)(C)C)[C@@H](C(=O)O)N(C(=O)[C@H]2CCC[C@H](OC)C2)[C@H]1c1ccccc1` [Example I-60], the “Maximum % activity (with co-corrector)” value is given as “+++ (≥350)” and the Emax is above 200%. Further, the 50% effective concentration (EC50) under setting [1] was in the range of 1000 to 10000 nM. Moreover, the EC50 under setting [2] is 1000 to 10000 nM.
Take `COc1ccc(C(C)(C)C)cc1CN[C@H]1[C@H](C(C)(C)OC)[C@@H](C(=O)O)N(C(=O)C2CCCCC2)[C@H]1c1ccccc1` [Example I-61]: the “Maximum % activity (with co-corrector)” value is recorded as “+++ (≥350)” and the Emax was above 200%. In addition, the EC50 under setting [1] was 1000 to 10000 nM. In addition, the EC50 under setting [2] is below 1000 nM.
The matching figures for `COc1cc(C(C)(C)C)ccc1CN[C@H]1[C@H](C(C)(C)OC)[C@@H](C(=O)O)N(C(=O)C2CCCCC2)[C@H]1c1ccccc1` [Example I-62]: “+++ (≥350)”, 100 to 200%, 1000 to 10000 nM and 1000 to 10000 nM.
The corresponding values for `COc1ccc(C(F)(F)F)cc1CN[C@H]1[C@H](C(C)(C)OC)[C@@H](C(=O)O)N(C(=O)C2CCCCC2)[C@H]1c1ccccc1` [Example I-63] are “+++ (≥350)”, above 200%, 1000 to 10000 nM and below 1000 nM.
As for `COc1ccc(C(C)(C)C)cc1CN[C@H]1[C@H](C(C)(C)C)[C@@H](C(=O)O)N(C(=O)c2cccnc2)[C@H]1c1ccccc1` [Example I-64], the “Maximum % activity (with co-corrector)” value is reported as “+++ (≥350)” and the Emax was below 100%. Besides, the EC50 under setting [1] was 1000 to 10000 nM. For the same molecule, the EC50 under setting [2] fell in the range of 1000 to 10000 nM.
For the molecule `COc1ccc(C(C)(C)C)cc1CN[C@H]1[C@H](C(C)(C)C)[C@@H](C(=O)O)N(C(=O)c2ccccc2)[C@H]1c1ccccc1` [Example I-65], the “Maximum % activity (with co-corrector)” value is on record as “+++ (≥350)” and the Emax lay within 100 to 200%. The EC50 under setting [1] fell in the range of 1000 to 10000 nM. In addition, under setting [2], the EC50 was 1000 to 10000 nM.
`COc1ccc(C(C)(C)C)cc1CN[C@H]1[C@H](C(C)(C)C)[C@@H](C(=O)O)N(C(=O)C2CCCS(=O)(=O)C2)[C@H]1c1ccccc1` (some centres unmarked) [Example I-66]: the “Maximum % activity (with co-corrector)” value is reported as “+++ (≥350)” and the Emax was above 200%. Also, the EC50 under setting [1] was in the range of 1000 to 10000 nM. Further, the EC50 under setting [2] was in the range of 1000 to 10000 nM.
With `CC(C)(C)[C@H]1[C@H](Nc2cc(C(F)(F)F)cc(C3CCC3)n2)[C@H](c2ccccc2)N(C(=O)C2CCCCC2)[C@@H]1C(=O)O` [Example I-67], the “Maximum % activity (with co-corrector)” value is recorded as “+++ (≥350)” and the Emax was below 100%. For the same molecule, under setting [1], the half-maximal effective concentration (EC50) lay within 1000 to 10000 nM. Under setting [2], the EC50 fell in the range of 1000 to 10000 nM.
For the molecule `COc1ccc(C2CCC2)cc1CN[C@H]1[C@H](C(C)(C)C)[C@@H](C(=O)O)N(C(=O)C2CCCCC2)[C@H]1c1ccccc1` [Example I-68], the “Maximum % activity (with co-corrector)” value is “+++ (≥350)” and the Emax is above 200%. Besides, the concentration giving a half-maximal response (EC50) under setting [1] is below 1000 nM. In addition, under setting [2], the EC50 is below 1000 nM.
In the case of `COc1ncc(Cc2ccccc2)cc1CN[C@H]1[C@H](C(C)(C)C)[C@@H](C(=O)O)N(C(=O)C2CCCCC2)[C@H]1c1ccccc1` [Example I-69], the “Maximum % activity (with co-corrector)” value is reported as “+++ (≥350)” and the Emax is 100 to 200%. Moreover, the concentration giving a half-maximal response (EC50) under setting [1] is below 1000 nM. Besides, the concentration giving a half-maximal response (EC50) under setting [2] is below 1000 nM.
Turning to `CCC(C)c1cnc(OC)c(CN[C@H]2[C@H](C(C)(C)C)[C@@H](C(=O)O)N(C(=O)C3CCCCC3)[C@H]2c2ccccc2)c1` (some centres unmarked) [Example I-70], the “Maximum % activity (with co-corrector)” value was “+++ (≥350)” and the Emax was above 200%. In addition, the concentration giving a half-maximal response (EC50) under setting [1] is 1000 to 10000 nM. Besides, the EC50 under setting [2] is below 1000 nM.
With `COc1ncc(CC2CCCCC2)cc1CN[C@H]1[C@H](C(C)(C)C)[C@@H](C(=O)O)N(C(=O)C2CCCCC2)[C@H]1c1ccccc1` [Example I-71], the “Maximum % activity (with co-corrector)” value was “+++ (≥350)” and the Emax fell in the range of 100 to 200%. Under setting [1], the concentration for a half-maximal effect (EC50) is below 1000 nM. The 50% effective concentration (EC50) under setting [2] is below 1000 nM.
As to `COc1ncc(C2CCCCC2)cc1CN[C@H]1[C@H](C(C)(C)C)[C@@H](C(=O)O)N(C(=O)C2CCCCC2)[C@H]1c1ccccc1` [Example I-72], the “Maximum % activity (with co-corrector)” value is listed as “+++ (≥350)” and the Emax was above 200%. Besides, the EC50 under setting [1] was below 1000 nM. In addition, under setting [2], the EC50 is below 1000 nM.
In the case of `COc1ncc(C2CCCC2)cc1CN[C@H]1[C@H](C(C)(C)C)[C@@H](C(=O)O)N(C(=O)C2CCCCC2)[C@H]1c1ccccc1` [Example I-73], the “Maximum % activity (with co-corrector)” value was “+++ (≥350)” and the Emax was above 200%. Also, the EC50 under setting [1] is below 1000 nM. Further, under setting [2], the EC50 was below 1000 nM.
With `CCC(CC)Cc1cnc(OC)c(CN[C@H]2[C@H](C(C)(C)C)[C@@H](C(=O)O)N(C(=O)C3CCCCC3)[C@H]2c2ccccc2)c1` [Example I-74], the “Maximum % activity (with co-corrector)” value was “+++ (≥350)” and the Emax is above 200%. Also, under setting [1], the EC50 is below 1000 nM. In addition, the EC50 under setting [2] is below 1000 nM.
For the molecule `COc1ncc(C(C)c2ccccc2)cc1CN[C@H]1[C@H](C(C)(C)C)[C@@H](C(=O)O)N(C(=O)C2CCCCC2)[C@H]1c1ccccc1` (some centres unmarked) [Example I-75], the “Maximum % activity (with co-corrector)” value is recorded as “+++ (≥350)” and the Emax lay within 100 to 200%. In addition, the 50% effective concentration (EC50) under setting [1] is below 1000 nM. In addition, the EC50 under setting [2] is below 1000 nM.
For `COc1ncc(CC(C)C)cc1CN[C@H]1[C@H](C(C)(C)C)[C@@H](C(=O)O)N(C(=O)C2CCCCC2)[C@H]1c1ccccc1` [Example I-76], the “Maximum % activity (with co-corrector)” value is on record as “+++ (≥350)” and the Emax was above 200%. Further, the half-maximal effective concentration (EC50) under setting [1] was in the range of 1000 to 10000 nM. For the same molecule, the EC50 under setting [2] is below 1000 nM.
The corresponding values for `COc1ncc(Cc2cccc(C#N)c2)cc1CN[C@H]1[C@H](C(C)(C)C)[C@@H](C(=O)O)N(C(=O)C2CCCCC2)[C@H]1c1ccccc1` [Example I-77] are “+++ (≥350)”, 100 to 200%, 1000 to 10000 nM and 1000 to 10000 nM.
The matching figures for `COc1ccc(-c2ccccc2)cc1CN[C@H]1[C@H](C(C)(C)C)[C@@H](C(=O)O)N(C(=O)[C@@H]2CCC[C@@H](OC)C2)[C@H]1c1ccccc1` [Example I-78]: “+++ (≥350)”, above 200%, 1000 to 10000 nM and below 1000 nM.
The matching figures for `COc1ncc(C(F)(F)F)cc1CN[C@H]1[C@H](C(C)(C)C)[C@@H](C(=O)O)N(C(=O)[C@@H]2CCC[C@@H](OC)C2)[C@H]1c1ccccc1` [Example I-79]: “+++ (≥350)”, above 200%, 1000 to 10000 nM and 1000 to 10000 nM.
As for `CC(C)(C)c1ccc(O)c(CN[C@H]2[C@H](C(C)(C)C)[C@@H](C(=O)O)N(C(=O)C3CCCCC3)[C@H]2c2ccccc2)c1` [Example I-80], the “Maximum % activity (with co-corrector)” value is “+ (<150)” and the Emax is below 100%. Further, the 50% effective concentration (EC50) under setting [1] is above 10000 nM. In addition, under setting [2], the EC50 was above 10000 nM.
On to `COc1ccc(C(C)(C)C)cc1CN[C@H]1[C@H](C(C)(C)C)[C@@H](C(=O)O)N(C(=O)OC(C)C)[C@H]1c1ccccc1` [Example I-81], for which the “Maximum % activity (with co-corrector)” value is given as “+++ (≥350)” and the Emax was above 200%. Under setting [1], the EC50 was in the range of 1000 to 10000 nM. Further, under setting [2], the half-maximal effective concentration (EC50) lay within 1000 to 10000 nM.
With `COc1ccc(C(C)(C)C)cc1N[C@H]1[C@H](C(C)(C)C)[C@@H](C(=O)O)N(C(=O)C2CCCCC2)[C@H]1c1ccccc1` [Example I-82], the “Maximum % activity (with co-corrector)” value is reported as “+++ (≥350)” and the Emax was below 100%. Moreover, the 50% effective concentration (EC50) under setting [1] lay within 1000 to 10000 nM. Moreover, the EC50 under setting [2] lay within 1000 to 10000 nM.
As to `COc1ccc(C(F)(F)F)cc1CN[C@H]1[C@H](C(C)(C)C)[C@@H](C(=O)O)N(C(=O)CC2CCCCO2)[C@H]1c1ccccc1` (some centres unmarked) [Example I-84], the “Maximum % activity (with co-corrector)” value is listed as “+++ (≥350)” and the Emax was in the range of 100 to 200%. Under setting [1], the EC50 is 1000 to 10000 nM. Under setting [2], the EC50 is 1000 to 10000 nM.
For the molecule `COc1ccc(CN(C)C)cc1CN[C@H]1[C@H](C(C)(C)C)[C@@H](C(=O)O)N(C(=O)C2CCCCC2)[C@H]1c1ccccc1` [Example I-85], the “Maximum % activity (with co-corrector)” value is on record as “+ (<150)” and the Emax is below 100%. For the same molecule, the EC50 under setting [1] is above 10000 nM. Moreover, the EC50 under setting [2] is above 10000 nM.
Take `COc1ccc(S(F)(F)(F)(F)F)cc1CN[C@H]1[C@H](C(C)(C)C)[C@@H](C(=O)O)N(C(=O)C2CCCCC2)[C@H]1c1ccccc1` [Example I-86]: the “Maximum % activity (with co-corrector)” value is “+++ (≥350)” and the Emax is 100 to 200%. The EC50 under setting [1] is below 1000 nM. For the same molecule, the concentration for a half-maximal effect (EC50) under setting [2] is below 1000 nM.
As to `COc1ccc(-c2ccccc2)cc1CN[C@H]1[C@H](C(C)(C)OC)[C@@H](C(=O)O)N(C(=O)C2CCCCC2)[C@H]1c1ccccc1` [Example I-87], the “Maximum % activity (with co-corrector)” value is on record as “+++ (≥350)” and the Emax was above 200%. Under setting [1], the concentration giving a half-maximal response (EC50) is below 1000 nM. For the same molecule, the concentration giving a half-maximal response (EC50) under setting [2] is below 1000 nM.
In the case of `COc1ccc(C(C)(C)C#N)cc1CN[C@H]1[C@H](C(C)(C)C)[C@@H](C(=O)O)N(C(=O)C2CCCCC2)[C@H]1c1ccccc1` [Example I-88], the “Maximum % activity (with co-corrector)” value was “+++ (≥350)” and the Emax lay in the range of 100 to 200%. Moreover, the 50% effective concentration (EC50) under setting [1] lay within 1000 to 10000 nM. Besides, under setting [2], the EC50 is 1000 to 10000 nM.
